Test results: PubChem BioAssay AID248 (DTP/NCI, 2004)
Several values for one entry are separate records, joined by “and”; a condition that tells them apart may be missing. Equal entries are not always repeated. Inconclusive results and toxic doses are left out.

System: L1210 leukemia ip in BDF1 mice, survival T/C
Test: NCI In Vivo Anticancer Drug Screen. Data for tumor model L1210 Leukemia (intraperitoneal) in B6D2F1 (BDF1) mice
Conditions: endpoint: mean survival time, higher = longer survival
Outline: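 Tumor was transplanted into mice, which were then dosed with test compound or vehicle alone. Survival was recorded for each group, and the treated figure was expressed relative to the control figure.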

[1] = dose: 100.0 mg/kg/injection, schedule: Q01DX009 (ip), vehicle: Klucel (hydroxypropylcellulose) (HPC)
[2] = dose: 100.0 mg/kg/injection, schedule: Q04DX003 (ip), vehicle: Klucel (hydroxypropylcellulose) (HPC)
[3] = dose: 200.0 mg/kg/injection, schedule: Q04DX003 (ip), vehicle: Klucel (hydroxypropylcellulose) (HPC)
[4] = dose: 100.0 mg/kg/injection, schedule: Q04DX003 (ip), vehicle: saline with Tween-80
[5] = dose: 200.0 mg/kg/injection, schedule: Q04DX003 (ip), vehicle: saline with Tween-80
[6] = dose: 400.0 mg/kg/injection, schedule: Q04DX003 (ip), vehicle: saline with Tween-80
[7] = dose: 100.0 mg/kg/injection, schedule: Q01DX001 (ip), vehicle: Klucel (hydroxypropylcellulose) (HPC)
[8] = dose: 200.0 mg/kg/injection, schedule: Q01DX001 (ip), vehicle: Klucel (hydroxypropylcellulose) (HPC)
[9] = dose: 400.0 mg/kg/injection, schedule: Q01DX001 (ip), vehicle: Klucel (hydroxypropylcellulose) (HPC)
[10] = dose: 400.0 mg/kg/injection, schedule: Q04DX003 (ip), vehicle: Klucel (hydroxypropylcellulose) (HPC)
[11] = dose: 25.0 mg/kg/injection, schedule: Q01DX009 (ip), vehicle: saline with Tween-80
[12] = dose: 50.0 mg/kg/injection, schedule: Q01DX009 (ip), vehicle: saline with Tween-80
[13] = dose: 100.0 mg/kg/injection, schedule: Q01DX009 (ip), vehicle: saline with Tween-80

Compound: CC(C)=CC(=O)NC(=O)NS(=O)(=O)c1ccc(C)cc1
- T/C (dose: 50.0 mg/kg/injection, schedule: Q01DX009 (ip), vehicle: Klucel (hydroxypropylcellulose) (HPC)): 91 % of control
- T/C [1]: 95 % of control
- T/C [2]: 115 % of control
- T/C [3]: 104 % of control

Compound: S=C(NCc1ccco1)NCc1ccco1
- T/C (dose: 155.0 mg/kg/injection, schedule: Q01DX Z (ip), vehicle: methylcellulose (MC)): 92 % of control
- T/C (dose: 233.0 mg/kg/injection, schedule: Q01DX Z (ip), vehicle: methylcellulose (MC)): 100 % of control

Compound: CC(C)(C)NCCCC(=O)O
- T/C [4]: 110 % of control
- T/C [5]: 100 % of control
- T/C [6]: 92 % of control

Compound: C/C=C1\CCOC1=O
- T/C (dose: 100.0 mg/kg/injection, schedule: Q04DX002 (ip), vehicle: saline): 94 % of control
- T/C (dose: 200.0 mg/kg/injection, schedule: Q04DX002 (ip), vehicle: saline): 91 % of control
- T/C (dose: 400.0 mg/kg/injection, schedule: Q04DX002 (ip), vehicle: saline): 105 % of control

Compound: Cc1ccc2ccccc2c1NCCC(=O)O
- T/C [7]: 101 % of control
- T/C [2]: 104 % of control
- T/C [8]: 100 % of control
- T/C [3]: 98 % of control
- T/C [9]: 91 % of control
- T/C [10]: 102 % of control

Compound: CC(=O)[C@]1(O)Cc2c(O)c3c(c(O)c2[C@@H](OC2CC(N)C(O)C(C)O2)C1)C(=O)c1c(O)cccc1C3=O (stereo not given in full)
- T/C (dose: 0.05 mg/kg/injection, schedule: Q03DX003 (ip), vehicle: saline): 109 % of control
- T/C (dose: 0.1 mg/kg/injection, schedule: Q03DX003 (ip), vehicle: saline): 123 % of control
- T/C (dose: 0.2 mg/kg/injection, schedule: Q01DX001 (ip), vehicle: saline): 122 % of control
- T/C (dose: 0.4 mg/kg/injection, schedule: Q01DX009 (ip), vehicle: saline): 154 % of control
- T/C (dose: 0.4 mg/kg/injection, schedule: Q03DX003 (ip), vehicle: saline): 157 % of control
- T/C (dose: 0.8 mg/kg/injection, schedule: Q01DX001 (ip), vehicle: saline): 192 % of control
- T/C (dose: 0.8 mg/kg/injection, schedule: Q01DX009 (ip), vehicle: saline): 98 % of control
- T/C (dose: 0.8 mg/kg/injection, schedule: Q03DX003 (ip), vehicle: saline): 159 % of control
- T/C (dose: 1.6 mg/kg/injection, schedule: Q01DX001 (ip), vehicle: saline): 166 % of control

Compound: C/C(=C/c1c(C)cc(C)c(NC(=O)c2ccc([N+](=O)[O-])cc2)c1C)CBr
- T/C [7]: 93 % of control
- T/C [2]: 97 % of control
- T/C [8]: 102 % of control
- T/C [3]: 92 % of control
- T/C [9]: 96 % of control
- T/C [10]: 92 % of control

Compound: CC(=O)CCc1ccccc1
- T/C (dose: 100.0 mg/kg/injection, schedule: Q01DX001 (ip), vehicle: carboxymethylcellulose (CMC)): 101 % of control
- T/C (dose: 200.0 mg/kg/injection, schedule: Q01DX001 (ip), vehicle: carboxymethylcellulose (CMC)): 103 % of control
- T/C (dose: 400.0 mg/kg/injection, schedule: Q01DX001 (ip), vehicle: carboxymethylcellulose (CMC)): 101 % of control

Compound: COC(OC)c1[nH]c(=S)[nH]c(=O)c1Cc1ccccc1
- T/C [11]: 98 % of control
- T/C [12]: 96 % of control
- T/C [13]: 98 % of control
- T/C [4]: 102 % of control
- T/C (dose: 200.0 mg/kg/injection, schedule: Q01DX009 (ip), vehicle: saline with Tween-80): 86 % of control
- T/C [5]: 96 % of control
- T/C [6]: 94 % of control

Compound: CN(C)CCCN(C)CCCCN(C)CCCN(C)C
- T/C (dose: 100.0 mg/kg/injection, schedule: Q01DX001 (ip), vehicle: saline): 96 % of control

Compound: CC1CCC(NC(=O)NCCCl)c2ccccc21 (stereo not given)
- T/C (dose: 20.0 mg/kg/injection, schedule: Q04DX003 (ip), vehicle: Klucel (hydroxypropylcellulose) (HPC)): 102 % of control
- T/C (dose: 40.0 mg/kg/injection, schedule: Q04DX003 (ip), vehicle: Klucel (hydroxypropylcellulose) (HPC)): 100 % of control
- T/C (dose: 80.0 mg/kg/injection, schedule: Q04DX003 (ip), vehicle: Klucel (hydroxypropylcellulose) (HPC)): 100 % of control

Compound: CN(C)N=Nc1ccccc1Cl
- T/C [11]: 106 % of control
- T/C [12]: 120 % of control
- T/C (dose: 50.0 mg/kg/injection, schedule: Q04DX003 (ip), vehicle: Klucel (hydroxypropylcellulose) (HPC)): 97 % of control
- T/C [1]: 95 % of control
- T/C [13]: 123 % of control
- T/C [2]: 102 % of control and 103 % of control
- T/C [3]: 103 % of control and 111 % of control
- T/C [10]: 113 % of control

Compound: CC(=O)NNC(=O)Nc1cccc(C(F)(F)F)c1
- T/C [12]: 94 % of control
- T/C [13]: 91 % of control

Compound: O=NN(CCF)C(=O)NC1CC2CCC1C2 (stereo not given)
- T/C (dose: 3.12 mg/kg/injection, schedule: Q01DX001 (ip), vehicle: other): 108 % of control
- T/C (dose: 5.7 mg/kg/injection, schedule: Q01DX001 (ip), vehicle: other): 104 % of control
- T/C (dose: 6.25 mg/kg/injection, schedule: Q01DX001 (ip), vehicle: other): 118 % of control
- T/C (dose: 12.5 mg/kg/injection, schedule: Q01DX001 (ip), vehicle: other): 150 % of control
- T/C (dose: 23.0 mg/kg/injection, schedule: Q01DX001 (ip), vehicle: other): 180 % of control
- T/C (dose: 25.0 mg/kg/injection, schedule: Q01DX001 (ip), vehicle: other): 180 % of control
- T/C (dose: 37.0 mg/kg/injection, schedule: Q01DX001 (ip), vehicle: other): 308 % of control
- T/C (dose: 37.5 mg/kg/injection, schedule: Q01DX001 (ip), vehicle: other): 361 % of control
- T/C (dose: 46.0 mg/kg/injection, schedule: Q01DX001 (ip), vehicle: other): 310 % of control
- T/C (dose: 56.0 mg/kg/injection, schedule: Q01DX001 (ip), vehicle: other): 348 % of control

Compound: CCOc1ccc(N=Nc2c(O)n(-c3ccccc3C)c(=S)n(-c3ccccc3OC)c2=O)cc1
- T/C (dose: 75.0 mg/kg/injection, schedule: Q01DX003 (ip), vehicle: Klucel (hydroxypropylcellulose) (HPC)): 91 % of control
- T/C (dose: 150.0 mg/kg/injection, schedule: Q01DX003 (ip), vehicle: Klucel (hydroxypropylcellulose) (HPC)): 94 % of control
- T/C (dose: 300.0 mg/kg/injection, schedule: Q01DX003 (ip), vehicle: Klucel (hydroxypropylcellulose) (HPC)): 91 % of control

Compound: CCOC(=O)N1C(C)C1C(C)C (stereo not given)
- T/C (dose: 62.0 mg/kg/injection, schedule: Q04DX003 (ip), vehicle: carboxymethylcellulose (CMC)): 97 % of control
- T/C (dose: 125.0 mg/kg/injection, schedule: Q04DX003 (ip), vehicle: carboxymethylcellulose (CMC)): 97 % of control
- T/C (dose: 250.0 mg/kg/injection, schedule: Q04DX003 (ip), vehicle: carboxymethylcellulose (CMC)): 94 % of control

Compound: CCCCC(F)C(Br)C(=O)O (stereo not given)
- T/C (dose: 100.0 mg/kg/injection, schedule: Q04DX002 (ip), vehicle: saline with Tween-80): 97 % of control
- T/C (dose: 200.0 mg/kg/injection, schedule: Q04DX002 (ip), vehicle: saline with Tween-80): 87 % of control
- T/C (dose: 400.0 mg/kg/injection, schedule: Q04DX002 (ip), vehicle: saline with Tween-80): 93 % of control

Compound: N#CCCCC1(CCCC#N)OCCO1
- T/C (dose: 25.0 mg/kg/injection, schedule: Q01DX009 (ip), vehicle: saline): 94 % of control
- T/C (dose: 50.0 mg/kg/injection, schedule: Q01DX009 (ip), vehicle: saline): 100 % of control

Compound: NC(=S)N/N=C/c1ccc(OC(=O)COc2ccccc2Cl)cn1
- T/C [4]: 124 % of control
- T/C [6]: 93 % of control

Compound: CC(=O)NC(=O)Nc1ccccc1
- T/C [2]: 94 % of control
- T/C [3]: 103 % of control
- T/C [10]: 95 % of control

Compound: O=C(Nc1ccc(Cl)cc1)Nc1ccccc1Cl
- T/C (dose: 100.0 mg/kg/injection, schedule: Q01DX009 (ip), vehicle: gum acacia): 91 % of control
- T/C (dose: 100.0 mg/kg/injection, schedule: Q04DX003 (ip), vehicle: gum acacia): 100 % of control
- T/C (dose: 200.0 mg/kg/injection, schedule: Q01DX009 (ip), vehicle: gum acacia): 87 % of control
- T/C (dose: 200.0 mg/kg/injection, schedule: Q04DX003 (ip), vehicle: gum acacia): 96 % of control
- T/C (dose: 400.0 mg/kg/injection, schedule: Q01DX009 (ip), vehicle: gum acacia): 89 % of control
- T/C (dose: 400.0 mg/kg/injection, schedule: Q04DX003 (ip), vehicle: gum acacia): 102 % of control

Compound: COc1ccc(C(C(N)=O)N2CCOCC2)cc1 (stereo not given)
- T/C [1]: 98 % of control
- T/C [2]: 95 % of control
- T/C (dose: 200.0 mg/kg/injection, schedule: Q01DX009 (ip), vehicle: Klucel (hydroxypropylcellulose) (HPC)): 100 % of control
- T/C [3]: 98 % of control
- T/C (dose: 400.0 mg/kg/injection, schedule: Q01DX009 (ip), vehicle: Klucel (hydroxypropylcellulose) (HPC)): 97 % of control
- T/C [10]: 104 % of control
